{"source": "patent US7732463B2", "about": "“4-(2-phenylsulfanyl-phenyl)-piperidine derivatives as serotonin reuptake inhibitors” (H. Lundbeck A/S, priority 2003, dated 2010)"}
{"target": "human 5-HT2C-VSV receptors (Homo sapiens, UniProt P28335, I156V/I160V/N158S)", "sequence (P28335 33-458 I156V/N158S/I160V limits assumed)": "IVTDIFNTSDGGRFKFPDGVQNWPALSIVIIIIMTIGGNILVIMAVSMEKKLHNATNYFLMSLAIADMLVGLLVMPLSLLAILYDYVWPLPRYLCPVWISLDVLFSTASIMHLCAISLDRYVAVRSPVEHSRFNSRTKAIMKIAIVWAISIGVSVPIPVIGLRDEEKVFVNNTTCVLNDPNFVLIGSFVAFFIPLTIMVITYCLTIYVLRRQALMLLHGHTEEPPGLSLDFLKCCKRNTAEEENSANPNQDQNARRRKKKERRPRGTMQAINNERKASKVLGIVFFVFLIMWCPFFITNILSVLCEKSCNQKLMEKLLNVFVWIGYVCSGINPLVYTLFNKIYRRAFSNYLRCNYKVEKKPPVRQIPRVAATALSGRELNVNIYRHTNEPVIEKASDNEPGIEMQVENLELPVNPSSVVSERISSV", "format": "binding", "conditions": "not given"}
{"smiles": "COc1ccc(Sc2ccccc2C2CCNCC2)cc1", "note": "[1b, 4-[2-(4-Methoxy-phenylsulfanyl)-phenyl]-piperidine]", "affinity to the 5HT2C receptor": "good affinity"}
{"smiles": "Fc1ccc(C2CCNCC2)c(Sc2ccc(Cl)cc2)c1", "note": "[1d, 4-[2-(4-Chloro-phenylsulfanyl)-4-fluoro-phenyl]-piperidine]", "affinity to the 5HT2C receptor": "good affinity"}
{"smiles": "COc1ccc(Sc2cc(F)ccc2C2CCNCC2)cc1", "note": "[1e, 4-[2-(4-Methoxy-phenylsulfanyl)-4-fluoro-phenyl]-piperidine]", "affinity to the 5HT2C receptor": "good affinity"}
{"smiles": "Cc1ccc(Sc2ccc(C)cc2C2CCNCC2)cc1", "note": "[1f, 4-[2-(4-Methyl-phenylsulfanyl)-5-methyl-phenyl]-piperidine]", "affinity to the 5HT2C receptor": "good affinity"}
{"smiles": "Cc1ccc(Sc2ccc(F)cc2C)c(C2CCNCC2)c1", "note": "[1h, 4-[2-(4-Fluoro-2-methyl-phenylsulfanyl)-5-methyl-phenyl]-piperidine]", "affinity to the 5HT2C receptor": "good affinity"}
{"smiles": "COc1ccc(Sc2ccc(C)cc2C2CCNCC2)cc1", "note": "[1i, 4-[2-(4-Methoxy-phenylsulfanyl)-5-methyl-phenyl]-piperidine]", "affinity to the 5HT2C receptor": "good affinity"}
{"smiles": "COc1ccc(Sc2ccc(F)cc2C2CCNCC2)c(F)c1", "note": "[2a3, 4-[2-(2-Fluoro-4-methoxy-phenylsulfanyl)-5-fluoro-phenyl]-piperidine]", "affinity to the 5HT2C receptor": "good affinity"}
{"smiles": "Clc1ccc(Sc2ccccc2C2CCNCC2)cc1", "note": "[2a]", "affinity to the 5HT2C receptor": "good affinity"}
{"smiles": "COc1ccc(Sc2ccc(F)cc2C2CCNCC2)cc1", "note": "[2b, 4-[2-(4-Methoxy-phenylsulfanyl)-5-fluoro-phenyl]-piperidine]", "affinity to the 5HT2C receptor": "good affinity"}
{"smiles": "COc1ccc(Sc2c(F)cccc2C2CCNCC2)cc1", "note": "[2d, 4-[2-(4-Methoxy-phenylsulfanyl)-3-fluoro-phenyl]-piperidine]", "affinity to the 5HT2C receptor": "good affinity"}
{"smiles": "Cc1ccc(Sc2ccc(Cl)cc2)c(C2CCNCC2)c1", "note": "[2g, 4-[2-(4-Chloro-phenylsulfanyl)-5-methyl-phenyl]-piperidine]", "affinity to the 5HT2C receptor": "good affinity"}
{"smiles": "Fc1ccc(Sc2ccc(F)cc2C2CCNCC2)cc1", "note": "[2j, 4-[2-(4-Fluoro-phenylsulfanyl)-5-fluoro-phenyl]-piperidine]", "affinity to the 5HT2C receptor": "good affinity"}
{"smiles": "Fc1ccc(Sc2ccc(Cl)cc2F)c(C2CCNCC2)c1", "note": "[2p, 4-[2-(4-Chloro-2-fluoro-phenylsulfanyl)-5-fluoro-phenyl]-piperidine]", "affinity to the 5HT2C receptor": "good affinity"}
{"smiles": "Cc1ccc(Sc2ccc(F)cc2C2CCNCC2)c(F)c1", "note": "[2q, 4-[2-(2-Fluoro-4-methyl-phenylsulfanyl)-5-fluoro-phenyl]-piperidine]", "affinity to the 5HT2C receptor": "good affinity"}
{"smiles": "Fc1ccc(Sc2ccc(F)cc2C2CCNCC2)c(F)c1", "note": "[2t, 4-[2-(2,4-Difluoro-phenylsulfanyl)-5-fluoro-phenyl]-piperidine]", "affinity to the 5HT2C receptor": "good affinity"}
{"smiles": "Cc1ccc(Sc2c(F)cccc2C2CCNCC2)c(C)c1", "note": "[2u, 4-[2-(2,4-Dimethyl-phenylsulfanyl)-3-fluoro-phenyl]-piperidine]", "affinity to the 5HT2C receptor": "good affinity"}
{"smiles": "Fc1ccc(Sc2ccc(Br)cc2F)c(C2CCNCC2)c1", "note": "[2x, 4-[2-(4-Bromo-2-fluoro-phenylsulfanyl)-5-fluoro-phenyl]-piperidine]", "affinity to the 5HT2C receptor": "good affinity"}
{"smiles": "Fc1ccc(Sc2ccccc2C2CCNCC2)c(Cl)c1", "note": "[3a2, 4-[2-(2-Chloro-4-fluoro-phenylsulfanyl)-phenyl]-piperidine]", "affinity to the 5HT2C receptor": "good affinity"}
{"smiles": "Fc1ccc(Sc2ccccc2C2CCNCC2)c(F)c1", "note": "[3a4, 4-[2-(2,4-Difluoro-phenylsulfanyl)-phenyl]-piperidine]", "affinity to the 5HT2C receptor": "good affinity"}
{"smiles": "COc1ccc(Sc2ccc(F)cc2)c(C2CCNCC2)c1", "note": "[3c2, 4-[2-(4-Fluoro-phenylsulfanyl)-5-methoxy-phenyl]-piperidine]", "affinity to the 5HT2C receptor": "good affinity"}
{"smiles": "COc1ccc(Sc2cccc(F)c2C2CCNCC2)c(C)c1", "note": "[3d4, 4-[2-(4-Methoxy-2-methyl-phenylsulfanyl)-6-fluoro-phenyl]-piperidine]", "affinity to the 5HT2C receptor": "good affinity"}
{"smiles": "Cc1ccc(Sc2cccc(F)c2C2CCNCC2)cc1F", "note": "[3d7, 4-[2-(3-Fluoro-4-methyl-phenylsulfanyl)-6-fluoro-phenyl]-piperidine]", "affinity to the 5HT2C receptor": "good affinity"}
{"smiles": "Fc1cccc(Sc2cccc(Cl)c2)c1C1CCNCC1", "note": "[3d10, 4-[2-(3-Chloro-phenylsulfanyl)-6-fluoro-phenyl]-piperidine]", "affinity to the 5HT2C receptor": "good affinity"}
{"smiles": "Fc1cccc(Sc2cccc(F)c2C2CCNCC2)c1", "note": "[3d11, 4-[2-(3-Fluoro-phenylsulfanyl)-6-fluoro-phenyl]-piperidine]", "affinity to the 5HT2C receptor": "good affinity"}
{"smiles": "Fc1ccccc1Sc1cccc(F)c1C1CCNCC1", "note": "[3d12, 4-[2-(2-Fluoro-phenylsulfanyl)-6-fluoro-phenyl]-piperidine]", "affinity to the 5HT2C receptor": "good affinity"}
{"smiles": "COc1cc(Sc2cccc(F)c2C2CCNCC2)ccc1F", "note": "[3d13, 4-[2-(4-Fluoro-3-methoxy-phenylsulfanyl)-6-fluoro-phenyl]-piperidine]", "affinity to the 5HT2C receptor": "good affinity"}
{"smiles": "Fc1cc(Cl)ccc1Sc1cccc(F)c1C1CCNCC1", "note": "[3d15, 4-[2-(4-Chloro-2-fluoro-phenylsulfanyl)-6-fluoro-phenyl]-piperidine]", "affinity to the 5HT2C receptor": "good affinity"}
{"smiles": "Fc1cccc(Sc2ccc(C(F)(F)F)cc2)c1C1CCNCC1", "note": "[3d16, 4-[2-(4-Trifluoromethyl-phenylsulfanyl)-6-fluoro-phenyl]-piperidine]", "affinity to the 5HT2C receptor": "good affinity"}
{"smiles": "Fc1cccc(Sc2cccc(Cl)c2F)c1C1CCNCC1", "note": "[3d17, 4-[2-(3-Chloro-2-fluoro-phenylsulfanyl)-6-fluoro-phenyl]-piperidine]", "affinity to the 5HT2C receptor": "good affinity"}
{"smiles": "Cc1ccc(Sc2cccc(F)c2C2CCNCC2)cc1", "note": "[3d18, 4-[2-(4-Methyl-phenylsulfanyl)-6-fluoro-phenyl]-piperidine]", "affinity to the 5HT2C receptor": "good affinity"}
{"smiles": "Fc1cccc(Sc2ccc(Cl)cc2)c1C1CCNCC1", "note": "[3d19, 4-[2-(4-Chloro-phenylsulfanyl)-6-fluoro-phenyl]-piperidine]", "affinity to the 5HT2C receptor": "good affinity"}
{"smiles": "Cc1ccc(Sc2cccc(F)c2C2CCNCC2)c(F)c1", "note": "[3d21, 4-[2-(2-Fluoro-4-methyl-phenylsulfanyl)-6-fluoro-phenyl]-piperidine]", "affinity to the 5HT2C receptor": "good affinity"}
{"smiles": "COc1ccc(Sc2cccc(F)c2C2CCNCC2)c(F)c1", "note": "[3d23, 4-[2-(2-Fluoro-4-methoxy-phenylsulfanyl)-6-fluoro-phenyl]-piperidine]", "affinity to the 5HT2C receptor": "good affinity"}
{"smiles": "Fc1ccc(Sc2cccc(F)c2C2CCNCC2)c(F)c1", "note": "[3d24, 4-[2-(2,4-Difluoro-phenylsulfanyl)-6-fluoro-phenyl]-piperidine]", "affinity to the 5HT2C receptor": "good affinity"}
{"smiles": "COc1ccc(Sc2cccc(F)c2C2CCNCC2)c(Cl)c1", "note": "[3d25, 4-[2-(2-Chloro-4-methoxy-phenylsulfanyl)-6-fluoro-phenyl]-piperidine]", "affinity to the 5HT2C receptor": "good affinity"}
{"smiles": "COc1ccc(Sc2cccc(F)c2C2CCNCC2)cc1", "note": "[3d26, 4-[2-(4-Methoxy-phenylsulfanyl)-6-fluoro-phenyl]-piperidine]", "affinity to the 5HT2C receptor": "good affinity"}
{"smiles": "Fc1ccc(Sc2cccc(F)c2C2CCNCC2)cc1", "note": "[3d27, 4-[2-(4-Fluoro-phenylsulfanyl)-6-fluoro-phenyl]-piperidine]", "affinity to the 5HT2C receptor": "good affinity"}
{"smiles": "Fc1ccc(C2CCNCC2)c(Sc2ccccc2Cl)c1", "note": "[3f2, 4-[2-(2-Chloro-phenylsulfanyl)-4-fluoro-phenyl]-piperidine]", "affinity to the 5HT2C receptor": "good affinity"}
{"smiles": "Fc1ccc(Sc2cc(F)ccc2C2CCNCC2)cc1", "note": "[3f3, 4-[2-(4-Fluoro-phenylsulfanyl)-4-fluoro-phenyl]-piperidine]", "affinity to the 5HT2C receptor": "good affinity"}
{"test_system": "hippocampal 5-HT", "conditions": "rats, microdialysis, combined with citalopram; cited from earlier work"}
{"smiles": "COc1ccc(NC(=O)c2ccc(-c3ccc(-c4nnc(C)o4)cc3C)cc2)cc1N1CCN(C)CC1", "note": "[GMC 2-29]", "increase of hippocampal 5-HT by citalopram": "potentiated"}
